Assay results published in patent publication US20110263423A1, “Plant Health Composition” (BASF SE, priority 2008, published 2011).

Tests used:
Format in all cases: in vivo
[1] = test system: spring wheat (cv. Passat); test: Spring wheat pot trial, optimal water supply (Example 1)
Method: Mitcherlich pots of known weight were filled with 5.5 kg of sandy dry soil (pH 6.8) and fertilized (P, K and Mg) to optimal growing conditions. The culture was spring wheat (cv. Passat); 12 plants per pot. The experiment was conducted with 6 replications in a vegetation hall. Experiments were carried out under semi controlled conditions at very low disease-pressure with insignificant infection rates, protected from any undesired rain or water impact. The water consumption of each pot was calculated on the basis of the recorded measurements of the weight of the pots prior to each irrigation event up to the defined set point.
Nitrogen fertilizer (totally 1.75 g N/pot) was added in equal amounts at 3 stages to allow optimal growth conditions throughout the life cycle. All plants/pots were grown at optimal water supply by watering 2-3 times a day to 60% of the water holding capacity of the soil.
Compound Ia (62.5 g/L, 2 L in 400 L water/ha) was applied at growth stage 39/49 (BBCH scale), which is an EC formulation of compound Ia. Control plants were not treated.
Plant Height, as an indicator of plant vigor, was measured after heading. At maturity of the plants the grain, as an indicator of yield, was harvested and uniformly dried to 5% moisture content. Straw yield, as an another indicator of plant yield, was also determined and the number of halms with ear per pot was counted at maturity. Number of grains per pot was counted after harvest. Thousand Grain Weight (TGW), as yet another indicator of plant yield, was calculated based on grain yield per pot and number of grains per pot.

[2] = test system: Maize (Dekalb RX940); test: Maize field trial, Dinuba 2008 (Example 5)
Method: Maize was grown in 2008 in a field trial at the BASF experimental station in Dinuba, 10181 Avenue 416, Calif., U.S.A. The variety Dekalb RX940 was planted at a seeding rate of 10 plants/m^2. Four rows per plot were planted with a row spacing of 0.75 m. The trial was setup as a randomized bloc design with 5 replications, each. Plot size was 43 m^2. Compound Ia was used as an EC formulation (62.5 g a.i./L) with a dose rate of 0.8 L per hectar (50 g a.i./ha). The formulation was applied in a total spray volume of 400 L/ha. Compound Ia was sprayed at a growth stage 51/55 (BBCH) with a tractor mounted spray boom with VS11003 spray nozzles at 3 bar spray pressure.
(§1) No disease symptoms were visible at the application time and no symptoms were detected at later stages.
Green leaf area, as an indicator of plant vigor, was assessed beginning of ripening by estimating the green leaf area in 10 randomly chosen plants per plot.
At maturity the grain was harvested and the grain yield per plot, as an indicator of plant yield, was determined (kg/plot). Finally, the grain yield per hectare, as an aditional indicator of plant yield, was calculated (dt/ha). Furthermore, the Thousand Grain Weight (TGW) was determined in the second trial (Crow C300 42).

[3] = test system: Maize (Pioneer 34-N-45); test: Maize field trial, mixture with epoxiconazol, Colby synergism (Example 6); details: 50 g a.i./ha of each compound
Method: Maize was grown in 2008 in a field trial at the BASF experimental station in Dinuba, 10181 Avenue 416, Calif., U.S.A. The variety Pioneer 34-N-45 was planted at a seeding rate of 35.000 plants/ha. The trial was setup as a randomized bloc design with 5 replications, each. Plot size was 43 m^2.
The maize plants were either untreted, treated with epoxiconazol (A3), with compound Ia, and with a mixture comprising compound Ia and epoxiconazol. Epoxiconazol was applied as the commercial formulation OPUS™ (125 g a.i./L, SC formulation) at a dose rate of 0.4 L/ha (50 g a.i./ha). Compound Ia was used as an EC formulation (62.5 g a.i./L) with a dose rate of 0.8 L per hectar (50 g a.i./ha). Epoxiconazol was applied together with compound Ia (as a mixture) using a co-formulation of both compounds (EC formulation, 62.5 g a.i./L each) with a product rate of 0.8 L/ha. The formulation was applied in a total spray volume of 300 L/ha. Compound Ia was sprayed at growth stage 51/55 (BBCH) with a tractor mounted spray boom with VS11003 spray nozzles at 3 bar spray pressure.
as §1
At maturity the grain was harvested and the grain yield per plot, as an indicator of plant yield, was determined (kg/plot). Finally, the grain yield per hectare was calculated (dt/ha).
The efficacy was calculated as % increase of the grain yield (dt/ha) by each treatment compared to the untreated control.
The expected efficacies of the combinations of the active compounds were estimated using Colby's formula (Colby, S. R., Calculating synergistic and antagonistic responses of herbicide combinations, Weeds, 15, pp. 20-22, 1967) and compared with the observed efficacies.
E=x+y−x·y/100 Colby's formula: • E expected efficacy, expressed in % of the untreated control, when using the mixture of the active compounds A and B at the concentrations a and b • x efficacy, expressed in % of the untreated control, when using the active ingredient A at the concentration a • y efficacy, expressed in % of the untreated control, when using the active ingredient B at the concentration b

Q: Which “Grain yield/pot, change vs untreated control” value ([1]; 2 L/ha EC at BBCH 39/49) does the source give for `Cn1cc(C(=O)Nc2ccccc2-c2cc(F)c(F)c(F)c2)c(C(F)F)n1` [Compound Ia, N-(3′,4′,5′-trifluorobiphenyl-2-yl)-3-difluoromethyl-1-methyl-1H-pyrazole-4-carboxamide] here?
A: (+6%)

Q: And the “Number of halms with ear/pot, change vs untreated control” value ([1]; 2 L/ha EC at BBCH 39/49)?
A: (+16%)

Q: And the “Plant height, change vs untreated control” value ([1]; 2 L/ha EC at BBCH 39/49)?
A: (+2%)

Q: And the Straw yield ([1]; 2 L/ha EC at BBCH 39/49)?
A: 70.0 g/pot

Q: What about the “Straw yield, change vs untreated control” value ([1]; 2 L/ha EC at BBCH 39/49) of the same molecule?
A: (+6%)

Q: And the “TGW (Thousand Grain Weight)” value ([1]; 2 L/ha EC at BBCH 39/49)?
A: 32.0 g

Q: And the “TGW, change vs untreated control” value ([1]; 2 L/ha EC at BBCH 39/49)?
A: (+2%)

Q: And the “Number of halms with ear/pot” value ([1]; 2 L/ha EC at BBCH 39/49, at maturity)?
A: 37.5

Q: And the Grain yield/pot ([1]; 2 L/ha EC at BBCH 39/49, grain dried to 5% moisture)?
A: 74.2 g/pot

Q: And the Plant height ([1]; EC 62.5 g/L, 2 L in 400 L water/ha at BBCH 39/49, measured after heading)?
A: 76.2 cm

Q: What about the “Grain yield, increase as % of untreated” value ([2]; 50 g a.i./ha) of the same molecule?
A: (+4.5%)

Q: And the “TGW, increase as % of untreated” value ([2]; 50 g a.i./ha)?
A: (+3.3%)

Q: And the Grain yield ([2]; 50 g a.i./ha at BBCH 51/55)?
A: 154.7 dt/ha

Q: And the TGW ([2]; 50 g a.i./ha at BBCH 51/55)?
A: 317.0 g

Q: And the “% Green leaf area” value ([2]; 50 g a.i./ha at BBCH 51/55, beginning of ripening)?
A: 49.0%

Q: And the “Grain yield, increase as % of untreated” value ([2]; 50 g a.i./ha, listed as compound Ia)?
A: 4.5%

Q: What about the “Observed efficacy (% increase of grain yield vs untreated control)” value [3] of the same molecule?
A: 0.4%

Q: And the Grain yield ([3]; BBCH 51/55)?
A: 154.9 dt/ha
